pIC50: −log10 of the molar value.
Experiments:
Panc28 cells = experiment: Apoptosis (PARP cleavage, Western blot) in Panc28 cells; assay type: cell-based, human; conditions: Panc28, 24 hr
Description: (§1) Induction of KLF4 in HT-29 (FIG. 12A) and SW480 (FIG. 12B) cells. Cells were treated with different concentrations of CDODA isomers or T007 alone or in combination, and KLF4 mRNA levels were determined by real time PCR. […] KLF4 mRNA levels were not induced in SW480 cells by BA derivatives. FIGS. 12C-12D show induction of apoptosis. Panc28 (FIG. 12C) and SW480 (FIG. 12D) cells were treated for 24 hr with betulinic acid and related compounds and whole cell lysates were examined by Western blot analysis.
(§2) SW480, HT-29, HCT-15 and Panc-28 (3×10^5) colon cancer cells were seeded in 6-well tissue culture plates in DMEM/Ham's F-12 medium containing 2.5% charcoal-stripped FBS. Protein is extracted from the cells treated either with vehicle or indicated compounds suspended for 24 hr except for caveolin-1 protein which was done for 72 hr. Samples were extracted in high salt buffer [50 mmol/L HEPES, 500 mmol/L NaCl, 1.5 mmol/L MgCl2, 1 mmol/L EGTA, 10% glycerol, and 1% Triton X-100 (pH 7.5), and 5 μL/mL protease inhibitor cocktail (Sigma-Aldrich)]. Samples were incubated at 100° C. for 2 min, separated on either 10% or 12% SDS-PAGE gels and then transferred to polyvinylidene difluoride membrane (PVDF; Bio-Rad, Hercules, Calif.). […]

SW480 cells = experiment: Apoptosis (PARP cleavage, Western blot) in SW480 cells; assay type: cell-based, human; conditions: SW480, 24 hr
Description: as §1, §2

LNCaP cell xenografts = experiment: LNCaP xenograft in athymic nude mice; assay type: in vivo
Description: Male athymic BALB/c nude mice (age 4-6 weeks) were purchased from Harlan (Indianapolis, Ind.). LNCaP cells (1×106) were implanted with matrigel (BD Biosciences, San Jose, Calif.) subcutaneously into the flank of each mouse. Ten days after cell inoculation, animals were divided into three groups of 10 mice each. The first group received 100 μL vehicle (1% DMSO in corn oil) by oral gavage and the second and third groups of animals received 10 and 20 mg/kg/d doses of BA in vehicle every second day for 14 days (7 doses). The mice were weighed, and tumor areas were measured throughout the study. After 22 days, the animals were sacrificed, final body and tumor weights were determined and selected tissues were further examined by routine hematoxylin and eosin staining and immunohistochemical analysis.
Tissue sections ([…] thick) mounted on poly-Lysine-coated slides were deparaffinized by standard methods. Endogenous peroxidase was blocked by the use of 3% hydrogen peroxide in PBS for 10 min. Antigen retrieval for VEGF and CD31 staining was done for 10 min in 10 mmol/L sodium citrate buffer (pH 6) heated at 95° C. in a steamer followed by cooling for 15 min. […] Hematoxylin and eosin staining was determined as previously described.

SK-MEL2 melanoma cells = experiment: Cell proliferation (cell counting), SK-MEL2 melanoma cells; assay type: cell-based; conditions: Homo sapiens, SK-MEL-2, 144 h; SK-MEL2, 6 days; read-out: 6-day IC50 values for growth inhibition
Description: (§3) Human carcinoma cell lines LNCaP (prostate) and SK-MEL2 (melanoma) were obtained from American Type Culture Collection (Manassas, Va.). Cell lines were maintained in RPMI 1640 (Sigma) supplemented with 0.22% sodium bicarbonate, 0.011% sodium pyruvate, 0.45% glucose, 0.24% HEPES, 10% FBS, and 10 mL/L of 100× Antibiotic Antimycotic solution (Sigma). Cells were maintained at 37° C. in the presence of 5% CO2.
Prostate and melanoma cancer cells (2×10^4 per well) were plated in 12-well plates and allowed to attach for 24 hr. The medium was then changed to DMEM:Ham's F-12 medium containing 2.5% charcoal-stripped FBS and either vehicle (DMSO) or different concentrations of the compound were added. […] Each experiment was done in triplicate and results are expressed as means±SE for each set of experiments.

LNCaP cells = experiment: Western blot analysis of protein expression in LNCaP cells; assay type: cell-based, Human
Description: as §3
An equal amount of cell lysate (60 μg/well) was separated by 7.5% to 12% SDS-PAGE, which was followed by immunoblotting onto polyvinylidene difluoride (Bio-Rad, Hercules, Calif.). After blocking in TBST-Blotto (10 mmol/L Tris-HCl, 150 mmol/L NaCl (pH 8.0), 0.05% Triton X-100, 5% nonfat dry milk) for 30 min, the membranes were incubated with primary antibodies overnight at 4° C. and then with horseradish peroxidase-conjugated secondary antibody for 2 hr at room temperature. Proteins were visualized using the chemiluminescence substrate (Perkin-Elmer Life Sciences) for 1 min and exposed to Kodak X-OMAT AR autoradiography film (Eastman Kodak, Rochester, N.Y.).

pIC50 (SK-MEL2 melanoma cells)	Compound	caspase-dependent PARP cleavage (Panc28 cells)	caspase-dependent PARP cleavage (SW480 cells)	changes in organ or body weights or histopathology of liver and other tissues (LNCaP cell xenografts; 10 and 20 mg/kg/d, data not shown)	mitotic activity in tumors (LNCaP cell xenografts; treated mice, corn oil group 6-8)	concentrations inducing tumor suppressor gene KLF6 (LNCaP cells)	treatment time at which lower expression of Sp proteins is first observed (LNCaP cells; 15 μM)	lowest doses at which Sp protein degradation and PARP cleavage are observed (LNCaP cells; 48 or 72 hr)	concentration inducing downregulation of Sp1, Sp3 and Sp4 proteins (LNCaP cells; 24 hr)	concentration inducing downregulation of cyclin D1 (LNCaP cells; 24 hr exposure)
–	CC(C)C1CCC2(C(=O)O)CCC3(C)C(CCC4C5(C)C=C(C#N)C(=O)C(C)(C)C5CCC43C)C12 (stereo not shown) [CN-BA]	induced caspase-dependent PARP cleavage	induced caspase-dependent PARP cleavage	–	–	–	–	–	–	–
5.00 to 5.30	C=C(C)[C@@H]1CC[C@]2(C(=O)O)CC[C@]3(C)[C@H](CC[C@@H]4[C@@]5(C)CC[C@H](O)C(C)(C)[C@@H]5CC[C@]43C)[C@@H]12 [betulinic acid, Betulinic acid]	–	–	no treatment-related changes	1-2 microfigures/hpf	10 to 15 µM	12 h	1 to 2.5 µM	5 to 10 µM	≥ 10 µM
